According to PubChem BioAssay AID1259407 (Chemical Carcinogenesis Research Information System (CCRIS), 2018):
The source made the active and inactive calls. The rule behind the calls is not given here.

Test system: CCRIS mutagenicity, Ames/micronucleus/aberration tests
Experiment: CCRIS mutagenicity studies
[1] = Test System: AMES SALMONELLA TYPHIMURIUM, Strain/Indicator: TA98, Metabolic Activation: RAT, LIVER, S-9, AROCLOR 1254, Method: STANDARD PLATE
[2] = Test System: AMES SALMONELLA TYPHIMURIUM, Strain/Indicator: TA100, Metabolic Activation: RAT, LIVER, S-9, AROCLOR 1254, Method: STANDARD PLATE
[3] = Test System: AMES SALMONELLA TYPHIMURIUM, Strain/Indicator: TA98, Metabolic Activation: NONE, Method: STANDARD PLATE
[4] = Test System: AMES SALMONELLA TYPHIMURIUM, Strain/Indicator: TA100, Metabolic Activation: NONE, Method: STANDARD PLATE

In the case of `O[C@H]1C=Cc2c(cc3ccc4cccc5ccc2c3c45)[C@@H]1O`, the mutagenic call (Test System: AMES SALMONELLA TYPHIMURIUM, Strain/Indicator: TA97, Metabolic Activation: RAT, LIVER, S-9, AROCLOR 1254, Method: STANDARD PLATE) is reported as “active; positive”, the mutagenic call (Test System: AMES SALMONELLA TYPHIMURIUM, Strain/Indicator: TA98, Metabolic Activation: NONE, Method: HOST-MEDIATED) is reported as “active; positive” and the mutagenic call (Test System: AMES SALMONELLA TYPHIMURIUM, Strain/Indicator: TA98, Metabolic Activation: RAT, LIVER, 3-METHYLCHOLANTHRENE, Method: LIQUID SUSPENSION) is reported as “active; positive”. The mutagenic call [1] was “active; positive”, the mutagenic call (Test System: AMES SALMONELLA TYPHIMURIUM, Strain/Indicator: TA98, Metabolic Activation: RAT, LIVER, S-9, Method: STANDARD PLATE) was “active; positive” and the mutagenic call (Test System: AMES SALMONELLA TYPHIMURIUM, Strain/Indicator: TA100, Metabolic Activation: EPITHELIAL CELL-MEDIATED, AROCLOR 1254, Method: PREINCUBATION) was “active; positive”. The mutagenic call (Test System: AMES SALMONELLA TYPHIMURIUM, Strain/Indicator: TA100, Metabolic Activation: EPITHELIAL CELL-MEDIATED, NADPH, Method: PREINCUBATION) was “active; positive”, the mutagenic call (Test System: AMES SALMONELLA TYPHIMURIUM, Strain/Indicator: TA100, Metabolic Activation: EPITHELIAL CELL-MEDIATED, Method: PREINCUBATION) was “active; positive” and the mutagenic call (Test System: AMES SALMONELLA TYPHIMURIUM, Strain/Indicator: TA100, Metabolic Activation: KUPFFER CELL-MEDIATED, AROCLOR 1254, Method: PREINCUBATION) was “active; positive”. For the same compound, the mutagenic call (Test System: AMES SALMONELLA TYPHIMURIUM, Strain/Indicator: TA100, Metabolic Activation: KUPFFER CELL-MEDIATED, NADPH, Method: PREINCUBATION) was “active; positive”, the mutagenic call (Test System: AMES SALMONELLA TYPHIMURIUM, Strain/Indicator: TA100, Metabolic Activation: KUPFFER CELL-MEDIATED, Method: PREINCUBATION) was “active; positive” and the mutagenic call (Test System: AMES SALMONELLA TYPHIMURIUM, Strain/Indicator: TA100, Metabolic Activation: NONE, Method: HOST-MEDIATED) was “active; positive”. The mutagenic call (Test System: AMES SALMONELLA TYPHIMURIUM, Strain/Indicator: TA100, Metabolic Activation: PARENCHYMAL CELL-MEDIATED, AROCLOR 1254, Method: PREINCUBATION) was “active; positive”, the mutagenic call (Test System: AMES SALMONELLA TYPHIMURIUM, Strain/Indicator: TA100, Metabolic Activation: PARENCHYMAL CELL-MEDIATED, NADPH, Method: PREINCUBATION) was “active; positive” and the mutagenic call (Test System: AMES SALMONELLA TYPHIMURIUM, Strain/Indicator: TA100, Metabolic Activation: PARENCHYMAL CELL-MEDIATED, Method: PREINCUBATION) was “active; positive”. The mutagenic call [2] was “active; positive”, the mutagenic call (Test System: AMES SALMONELLA TYPHIMURIUM, Strain/Indicator: TA100, Metabolic Activation: RAT, LIVER, S-9, Method: STANDARD PLATE) was “active; positive” and the mutagenic call (Test System: AMES SALMONELLA TYPHIMURIUM, Strain/Indicator: TA1537, Metabolic Activation: RAT, LIVER, S-9 AROCLOR 1254, Method: STANDARD PLATE) was “inactive; negative”. The mutagenic call (Test System: AMES SALMONELLA TYPHIMURIUM, Strain/Indicator: TA1538, Metabolic Activation: NONE, Method: HOST-MEDIATED) was “inactive; negative”, the mutagenic call (Test System: AMES SALMONELLA TYPHIMURIUM, Strain/Indicator: TA1538, Metabolic Activation: RAT, LIVER, S-9, Method: STANDARD PLATE) was “active; positive” and the mutagenic call (Test System: CHINESE HAMSTER V-79, Strain/Indicator: V-79/6-THIOGUANINE, Metabolic Activation: RAT, LIVER, S-9, AROCLOR 1254) was “active; positive”. For the same compound, the mutagenic call (Test System: CHINESE HAMSTER V-79, Strain/Indicator: V-79/8-AZAGUANINE, Metabolic Activation: CELL-MEDIATED, Method: STANDARD PLATE) was “active; positive”, the mutagenic call (Test System: CHINESE HAMSTER V-79, Strain/Indicator: V-79/8-AZAGUANINE, Metabolic Activation: NONE, Method: STANDARD PLATE) was “active; positive” and the mutagenic call (Test System: CHINESE HAMSTER V-79, Strain/Indicator: V-79/OUABAIN, Metabolic Activation: CELL-MEDIATED, Method: STANDARD PLATE) was “active; positive”. For the same compound, the mutagenic call (Test System: CHINESE HAMSTER V-79, Strain/Indicator: V-79/OUABAIN, Metabolic Activation: HAMSTER, EMBRYO, CELL-MEDIATED, Method: STANDARD PLATE) was “active; positive”.

With `CC(O)CN(CCN(CC(C)O)CC(C)O)CC(C)O` (stereo not drawn) the mutagenic call (Test System: AMES SALMONELLA TYPHIMURIUM, Strain/Indicator: TA97, Metabolic Activation: NONE, Method: STANDARD PLATE) was “inactive; negative”, the mutagenic call (Test System: AMES SALMONELLA TYPHIMURIUM, Strain/Indicator: TA97, Metabolic Activation: S-9, Method: STANDARD PLATE) was “inactive; negative” and the mutagenic call [3] was “inactive; negative”. For the same compound, the mutagenic call (Test System: AMES SALMONELLA TYPHIMURIUM, Strain/Indicator: TA98, Metabolic Activation: S-9, Method: STANDARD PLATE) was “inactive; negative”, the mutagenic call [4] was “inactive; negative” and the mutagenic call (Test System: AMES SALMONELLA TYPHIMURIUM, Strain/Indicator: TA100, Metabolic Activation: S-9, Method: STANDARD PLATE) was “inactive; negative”. The mutagenic call (Test System: AMES SALMONELLA TYPHIMURIUM, Strain/Indicator: TA102, Metabolic Activation: NONE, Method: STANDARD PLATE) was “inactive; negative”, the mutagenic call (Test System: AMES SALMONELLA TYPHIMURIUM, Strain/Indicator: TA102, Metabolic Activation: S-9, Method: STANDARD PLATE) was “inactive; negative” and the mutagenic call (Test System: E.COLI, Strain/Indicator: WP2 (PKM101), Metabolic Activation: NONE, Method: STANDARD PLATE) was “inactive; negative”. For the same compound, the mutagenic call (Test System: E.COLI, Strain/Indicator: WP2 (PKM101), Metabolic Activation: S-9, Method: STANDARD PLATE) was “inactive; negative”.

In the case of `Cc1ccccc1NS(=O)(=O)c1cccc2cccnc12`, the mutagenic call [3] is reported as “inactive; negative”, the mutagenic call [1] is reported as “inactive; negative” and the mutagenic call [4] is reported as “inactive; negative”. The mutagenic call [2] was “inactive; negative”, the mutagenic call (Test System: AMES SALMONELLA TYPHIMURIUM, Strain/Indicator: TA1535, Metabolic Activation: NONE, Method: STANDARD PLATE) was “inactive; negative” and the mutagenic call (Test System: AMES SALMONELLA TYPHIMURIUM, Strain/Indicator: TA1535, Metabolic Activation: RAT, LIVER, S-9, AROCLOR 1254, Method: STANDARD PLATE) was “inactive; negative”. For the same compound, the mutagenic call (Test System: AMES SALMONELLA TYPHIMURIUM, Strain/Indicator: TA1537, Metabolic Activation: NONE, Method: STANDARD PLATE) was “inactive; negative” and the mutagenic call (Test System: AMES SALMONELLA TYPHIMURIUM, Strain/Indicator: TA1537, Metabolic Activation: RAT, LIVER, S-9, AROCLOR 1254, Method: STANDARD PLATE) was “inactive; negative”.
